Assay results as given in ChEMBL document CHEMBL3885861, “Open TG-GATES”.

Organism: Rattus norvegicus
Experiment: Open TG-GATES - Regimen: Daily Repeat
Assay type: toxicity, organism-based, Sprague-Dawley
Design: regimen Daily Repeat, gender Male, age 6 weeks
Settings: in vivo, po, route gavage; for APTT / Bas / Eos / Fbg / Hb / Ht / Lym / MCH / MCHC / MCV / Mono / Neu / PT / Plat / RBC / Ret / WBC: tissue Blood; for KIDNEY_L / KIDNEY_R / KIDNEY_TOTAL: tissue Kidney; for LIVER: tissue Liver; for A/G / ALP / ALT / AST / BUN / CRE / Ca / Cl / DBIL / GLC / IP / K / LDH / Na / PL / RALB / TBIL / TC / TG / TP / gamma-GTP: tissue Plasma
[1] = 20 mg/kg, 72 h, dose level Middle, time 3 day
[2] = 20 mg/kg, […], dose level Middle, time 7 day
[3] = 20 mg/kg, […], dose level Middle, time 14 day
[4] = 20 mg/kg, […], dose level Middle, time 28 day
[5] = 60 mg/kg, 72 h, dose level High, time 3 day
[6] = 60 mg/kg, […], dose level High, time 7 day
[7] = 60 mg/kg, […], dose level High, time 14 day
[8] = 60 mg/kg, […], dose level High, time 28 day

## CC(C)NNC(=O)c1ccncc1 [IPRONIAZID]
[1]
  TERMINAL_BW: 194.3 g
  APTT: 22.2 s
  Bas: 0%
  Eos: 1%
  Fbg: 299.2 mg/dL
  Hb: 14.1 g/dL
  Ht: 40.8%
  Lym: 78.8%
  MCH: 20.7 pg
  MCHC: 34.6%
  MCV: 59.9 fL
  Mono: 2.4%
  Neu: 17.6%
  PT: 16.5 s
  Plat: 134 x10_4/uL
  RBC: 682.6 x10_4/ul
  Ret: 5.9%
  WBC: 72.4 x10_2/uL
  KIDNEY_L: 0.8 g
  KIDNEY_R: 0.9 g
  KIDNEY_TOTAL: 1.7 g
  LIVER: 8.7 g
  A/G: 1.2
  ALP: 1696.2 IU/L
  ALT: 42 IU/L
  AST: 74 IU/L
  BUN: 19.2 mg/dL
  CRE: 0.2 mg/dL
  Ca: 10.5 mg/dL
  Cl: 108.2 meq/L
  DBIL: 0.002 mg/dL
  GLC: 175 mg/dL
  IP: 7.1 mg/dL
  K: 4.4 meq/L
  LDH: 262 IU/L
  Na: 143.2 meq/L
  PL: 150.8 mg/dL
  RALB: 3.3 g/dL
  TBIL: 0.01 mg/dL
  TC: 80.6 mg/dL
  TG: 105.2 mg/dL
  TP: 5.9 g/dL
  gamma-GTP: 1 IU/L
[2]
  TERMINAL_BW: 222.7 g
  APTT: 22.7 s
  Bas: 0%
  Eos: 1%
  Fbg: 311.4 mg/dL
  Hb: 13.3 g/dL
  Ht: 37.6%
  Lym: 82.2%
  MCH: 20.5 pg
  MCHC: 35.4%
  MCV: 57.8 fL
  Mono: 1.8%
  Neu: 13.8%
  PT: 15.4 s
  Plat: 122.6 x10_4/uL
  RBC: 651.6 x10_4/ul
  Ret: 4.2%
  WBC: 73.7 x10_2/uL
  KIDNEY_L: 0.9 g
  KIDNEY_R: 0.9 g
  KIDNEY_TOTAL: 1.8 g
  LIVER: 9.4 g
  A/G: 1.2
  ALP: 1298.6 IU/L
  ALT: 36.2 IU/L
  AST: 75 IU/L
  BUN: 18.6 mg/dL
  CRE: 0.2 mg/dL
  Ca: 10.4 mg/dL
  Cl: 107.6 meq/L
  DBIL: 0.004 mg/dL
  GLC: 179.4 mg/dL
  IP: 6.6 mg/dL
  K: 4.2 meq/L
  LDH: 206.4 IU/L
  Na: 142.2 meq/L
  PL: 154.8 mg/dL
  RALB: 3.1 g/dL
  TBIL: 0.006 mg/dL
  TC: 88.6 mg/dL
  TG: 89 mg/dL
  TP: 5.7 g/dL
  gamma-GTP: 1.4 IU/L
[3]
  TERMINAL_BW: 259.4 g
  APTT: 20.5 s
  Bas: 0%
  Eos: 0.6%
  Fbg: 320.6 mg/dL
  Hb: 12.5 g/dL
  Ht: 36.8%
  Lym: 76%
  MCH: 19.9 pg
  MCHC: 34%
  MCV: 58.7 fL
  Mono: 2.2%
  Neu: 20.4%
  PT: 16.1 s
  Plat: 122.7 x10_4/uL
  RBC: 628 x10_4/ul
  Ret: 8.9%
  WBC: 105.3 x10_2/uL
  KIDNEY_L: 1 g
  KIDNEY_R: 1 g
  KIDNEY_TOTAL: 2.1 g
  LIVER: 10.8 g
  A/G: 1.1
  ALP: 1067 IU/L
  ALT: 40.2 IU/L
  AST: 70.8 IU/L
  BUN: 18.2 mg/dL
  CRE: 0.2 mg/dL
  Ca: 10.4 mg/dL
  Cl: 106.6 meq/L
  DBIL: 0.004 mg/dL
  GLC: 182.6 mg/dL
  IP: 6.7 mg/dL
  K: 4.3 meq/L
  LDH: 154.6 IU/L
  Na: 142.2 meq/L
  PL: 153.8 mg/dL
  RALB: 3 g/dL
  TBIL: 0.026 mg/dL
  TC: 85 mg/dL
  TG: 118.6 mg/dL
  TP: 5.7 g/dL
  gamma-GTP: 1.8 IU/L
[4]
  TERMINAL_BW: 331.2 g
  APTT: 24 s
  Bas: 0%
  Eos: 1%
  Fbg: 313.2 mg/dL
  Hb: 13.5 g/dL
  Ht: 39%
  Lym: 80.8%
  MCH: 20.6 pg
  MCHC: 34.5%
  MCV: 59.6 fL
  Mono: 1.2%
  Neu: 16.6%
  PT: 16.3 s
  Plat: 108.1 x10_4/uL
  RBC: 654.8 x10_4/ul
  Ret: 6.7%
  WBC: 133.5 x10_2/uL
  KIDNEY_L: 1.2 g
  KIDNEY_R: 1.2 g
  KIDNEY_TOTAL: 2.4 g
  LIVER: 12.6 g
  A/G: 1.1
  ALP: 1143.8 IU/L
  ALT: 37.2 IU/L
  AST: 68 IU/L
  BUN: 17.4 mg/dL
  CRE: 0.2 mg/dL
  Ca: 10.4 mg/dL
  Cl: 106.2 meq/L
  DBIL: 0 mg/dL
  GLC: 184.2 mg/dL
  IP: 6.9 mg/dL
  K: 4.2 meq/L
  LDH: 157.6 IU/L
  Na: 141.8 meq/L
  PL: 138.4 mg/dL
  RALB: 3.1 g/dL
  TBIL: 0.038 mg/dL
  TC: 68.4 mg/dL
  TG: 122.6 mg/dL
  TP: 5.9 g/dL
  gamma-GTP: 2.2 IU/L
[5]
  TERMINAL_BW: 184.6 g
  APTT: 22.8 s
  Bas: 0%
  Eos: 0.8%
  Fbg: 317.4 mg/dL
  Hb: 13.1 g/dL
  Ht: 38.2%
  Lym: 86.2%
  MCH: 20.5 pg
  MCHC: 34.4%
  MCV: 59.6 fL
  Mono: 1.6%
  Neu: 10.8%
  PT: 16.9 s
  Plat: 145 x10_4/uL
  RBC: 640.8 x10_4/ul
  Ret: 5.5%
  WBC: 90.9 x10_2/uL
  KIDNEY_L: 0.9 g
  KIDNEY_R: 0.9 g
  KIDNEY_TOTAL: 1.7 g
  LIVER: 8.1 g
  A/G: 1.2
  ALP: 1455.4 IU/L
  ALT: 34 IU/L
  AST: 78.2 IU/L
  BUN: 20.4 mg/dL
  CRE: 0.2 mg/dL
  Ca: 10.2 mg/dL
  Cl: 108.2 meq/L
  DBIL: 0.002 mg/dL
  GLC: 175.4 mg/dL
  IP: 7.2 mg/dL
  K: 4.2 meq/L
  LDH: 305.2 IU/L
  Na: 143.4 meq/L
  PL: 149.6 mg/dL
  RALB: 3.2 g/dL
  TBIL: 0.04 mg/dL
  TC: 89.6 mg/dL
  TG: 61.2 mg/dL
  TP: 5.8 g/dL
  gamma-GTP: 1.2 IU/L
[6]
  TERMINAL_BW: 201.3 g
  APTT: 21.6 s
  Bas: 0%
  Eos: 1%
  Fbg: 275.8 mg/dL
  Hb: 11.7 g/dL
  Ht: 33.9%
  Lym: 77.2%
  MCH: 20.4 pg
  MCHC: 34.4%
  MCV: 59.3 fL
  Mono: 2.2%
  Neu: 19%
  PT: 16.3 s
  Plat: 121.7 x10_4/uL
  RBC: 571.6 x10_4/ul
  Ret: 7.4%
  WBC: 126.5 x10_2/uL
  KIDNEY_L: 1 g
  KIDNEY_R: 0.9 g
  KIDNEY_TOTAL: 1.9 g
  LIVER: 8.5 g
  A/G: 1.2
  ALP: 1212.6 IU/L
  ALT: 34.4 IU/L
  AST: 82 IU/L
  BUN: 22.2 mg/dL
  CRE: 0.2 mg/dL
  Ca: 10.1 mg/dL
  Cl: 108 meq/L
  DBIL: 0.024 mg/dL
  GLC: 180.6 mg/dL
  IP: 7 mg/dL
  K: 4 meq/L
  LDH: 241.4 IU/L
  Na: 142.8 meq/L
  PL: 151.6 mg/dL
  RALB: 3.1 g/dL
  TBIL: 0.086 mg/dL
  TC: 85.8 mg/dL
  TG: 55.2 mg/dL
  TP: 5.6 g/dL
  gamma-GTP: 1.6 IU/L
[7]
  TERMINAL_BW: 239 g
  APTT: 21.3 s
  Bas: 0%
  Eos: 1%
  Fbg: 302.2 mg/dL
  Hb: 11.4 g/dL
  Ht: 35.7%
  Lym: 78%
  MCH: 22.2 pg
  MCHC: 31.8%
  MCV: 69.8 fL
  Mono: 2%
  Neu: 18.4%
  PT: 16.5 s
  Plat: 115.4 x10_4/uL
  RBC: 511.4 x10_4/ul
  Ret: 19.5%
  WBC: 131.9 x10_2/uL
  KIDNEY_L: 1 g
  KIDNEY_R: 1 g
  KIDNEY_TOTAL: 2.1 g
  LIVER: 10.1 g
  A/G: 1.2
  ALP: 1104 IU/L
  ALT: 41 IU/L
  AST: 79 IU/L
  BUN: 19.6 mg/dL
  CRE: 0.2 mg/dL
  Ca: 10 mg/dL
  Cl: 106.8 meq/L
  DBIL: 0.01 mg/dL
  GLC: 174 mg/dL
  IP: 7 mg/dL
  K: 4.1 meq/L
  LDH: 201.2 IU/L
  Na: 141.4 meq/L
  PL: 165.8 mg/dL
  RALB: 3 g/dL
  TBIL: 0.058 mg/dL
  TC: 92.4 mg/dL
  TG: 82.8 mg/dL
  TP: 5.6 g/dL
  gamma-GTP: 1.8 IU/L
[8]
  TERMINAL_BW: 299.7 g
  APTT: 21.5 s
  Bas: 0%
  Eos: 0.8%
  Fbg: 352.8 mg/dL
  Hb: 11.9 g/dL
  Ht: 35%
  Lym: 77%
  MCH: 21.6 pg
  MCHC: 33.9%
  MCV: 63.7 fL
  Mono: 2.2%
  Neu: 18.8%
  PT: 16.9 s
  Plat: 108.7 x10_4/uL
  RBC: 550.2 x10_4/ul
  Ret: 12.4%
  WBC: 121.5 x10_2/uL
  KIDNEY_L: 1.2 g
  KIDNEY_R: 1.2 g
  KIDNEY_TOTAL: 2.4 g
  LIVER: 11.8 g
  A/G: 1.1
  ALP: 1056.8 IU/L
  ALT: 25 IU/L
  AST: 66.8 IU/L
  BUN: 18.6 mg/dL
  CRE: 0.2 mg/dL
  Ca: 10.2 mg/dL
  Cl: 105.8 meq/L
  DBIL: 0.004 mg/dL
  GLC: 182 mg/dL
  IP: 6.6 mg/dL
  K: 4.1 meq/L
  LDH: 156.6 IU/L
  Na: 141.8 meq/L
  PL: 149.6 mg/dL
  RALB: 3.1 g/dL
  TBIL: 0.09 mg/dL
  TC: 87 mg/dL
  TG: 76.6 mg/dL
  TP: 6 g/dL
  gamma-GTP: 2.4 IU/L
